Assays:
[1] = test system: Tyrosine-protein kinase ABL1 (Homo sapiens), P00519 [E255K]
[2] = test system: Tyrosine-protein kinase ABL1 (Homo sapiens), P00519 [T315I]
[3] = test system: Tyrosine-protein kinase ABL1 (Homo sapiens), P00519 [Y253F]
[4] = target: Activin receptor type-2A (Homo sapiens) (UniProt P27037)
[5] = target: Cyclin-dependent kinase 8 (Homo sapiens) (UniProt P49336)
[6] = target: Cyclin-dependent kinase 9 (Homo sapiens) (UniProt P50750)
[7] = target: Serine/threonine-protein kinase Chk1 (Homo sapiens) (UniProt O14757)
Serine/threonine-protein kinase Chk1 (Homo sapiens), sequence (O14757 whole entry): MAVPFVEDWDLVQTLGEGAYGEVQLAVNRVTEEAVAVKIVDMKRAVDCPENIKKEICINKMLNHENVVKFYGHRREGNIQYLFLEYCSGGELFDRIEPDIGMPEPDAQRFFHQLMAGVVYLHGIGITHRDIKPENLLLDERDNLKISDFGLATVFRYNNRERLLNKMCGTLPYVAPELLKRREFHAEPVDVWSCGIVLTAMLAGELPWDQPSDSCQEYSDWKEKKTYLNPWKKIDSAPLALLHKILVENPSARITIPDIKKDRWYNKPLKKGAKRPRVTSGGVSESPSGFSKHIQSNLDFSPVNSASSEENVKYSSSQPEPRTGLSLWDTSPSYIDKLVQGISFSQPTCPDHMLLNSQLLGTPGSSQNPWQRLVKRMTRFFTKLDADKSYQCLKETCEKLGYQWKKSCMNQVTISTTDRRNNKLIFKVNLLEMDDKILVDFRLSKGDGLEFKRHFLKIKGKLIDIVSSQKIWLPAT

[8] = target: Tyrosine-protein kinase CSK (Homo sapiens) (UniProt P41240)
[9] = target: Casein kinase I isoform delta (Homo sapiens) (UniProt P48730)
[10] = test system: Epidermal growth factor receptor (Homo sapiens), P00533 [L858R]
[11] = test system: Epidermal growth factor receptor (Homo sapiens), P00533 [L861Q]
[12] = target: Ephrin type-A receptor 1 (Homo sapiens) (UniProt P21709)
Ephrin type-A receptor 1 (Homo sapiens), sequence (P21709 whole entry): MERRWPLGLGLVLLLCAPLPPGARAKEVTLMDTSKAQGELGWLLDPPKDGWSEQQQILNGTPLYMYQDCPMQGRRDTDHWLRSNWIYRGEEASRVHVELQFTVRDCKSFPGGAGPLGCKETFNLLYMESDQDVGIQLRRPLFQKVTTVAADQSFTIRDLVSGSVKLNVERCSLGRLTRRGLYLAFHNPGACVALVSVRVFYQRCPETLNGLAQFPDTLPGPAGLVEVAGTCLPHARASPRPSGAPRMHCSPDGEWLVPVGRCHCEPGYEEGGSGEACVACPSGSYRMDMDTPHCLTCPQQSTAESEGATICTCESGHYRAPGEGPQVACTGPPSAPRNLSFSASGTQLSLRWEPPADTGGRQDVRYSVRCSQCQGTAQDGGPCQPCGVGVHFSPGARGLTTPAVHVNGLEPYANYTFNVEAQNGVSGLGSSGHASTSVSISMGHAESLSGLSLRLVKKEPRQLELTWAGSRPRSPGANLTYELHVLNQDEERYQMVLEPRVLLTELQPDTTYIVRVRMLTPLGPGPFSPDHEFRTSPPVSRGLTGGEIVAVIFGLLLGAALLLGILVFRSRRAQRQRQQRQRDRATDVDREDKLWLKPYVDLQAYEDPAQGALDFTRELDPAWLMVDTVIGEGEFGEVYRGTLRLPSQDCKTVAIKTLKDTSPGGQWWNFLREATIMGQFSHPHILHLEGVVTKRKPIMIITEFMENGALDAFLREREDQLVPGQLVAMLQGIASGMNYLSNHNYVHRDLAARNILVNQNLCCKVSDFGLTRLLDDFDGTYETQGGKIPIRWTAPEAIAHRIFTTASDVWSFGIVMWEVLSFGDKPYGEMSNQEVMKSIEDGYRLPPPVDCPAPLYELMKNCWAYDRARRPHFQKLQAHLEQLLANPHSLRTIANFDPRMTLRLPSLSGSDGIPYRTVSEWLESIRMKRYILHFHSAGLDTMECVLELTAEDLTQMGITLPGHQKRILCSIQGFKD

[13] = target: Receptor-type tyrosine-protein kinase FLT3 (Homo sapiens) (UniProt P36888)
Receptor-type tyrosine-protein kinase FLT3 (Homo sapiens), sequence (P36888 whole entry): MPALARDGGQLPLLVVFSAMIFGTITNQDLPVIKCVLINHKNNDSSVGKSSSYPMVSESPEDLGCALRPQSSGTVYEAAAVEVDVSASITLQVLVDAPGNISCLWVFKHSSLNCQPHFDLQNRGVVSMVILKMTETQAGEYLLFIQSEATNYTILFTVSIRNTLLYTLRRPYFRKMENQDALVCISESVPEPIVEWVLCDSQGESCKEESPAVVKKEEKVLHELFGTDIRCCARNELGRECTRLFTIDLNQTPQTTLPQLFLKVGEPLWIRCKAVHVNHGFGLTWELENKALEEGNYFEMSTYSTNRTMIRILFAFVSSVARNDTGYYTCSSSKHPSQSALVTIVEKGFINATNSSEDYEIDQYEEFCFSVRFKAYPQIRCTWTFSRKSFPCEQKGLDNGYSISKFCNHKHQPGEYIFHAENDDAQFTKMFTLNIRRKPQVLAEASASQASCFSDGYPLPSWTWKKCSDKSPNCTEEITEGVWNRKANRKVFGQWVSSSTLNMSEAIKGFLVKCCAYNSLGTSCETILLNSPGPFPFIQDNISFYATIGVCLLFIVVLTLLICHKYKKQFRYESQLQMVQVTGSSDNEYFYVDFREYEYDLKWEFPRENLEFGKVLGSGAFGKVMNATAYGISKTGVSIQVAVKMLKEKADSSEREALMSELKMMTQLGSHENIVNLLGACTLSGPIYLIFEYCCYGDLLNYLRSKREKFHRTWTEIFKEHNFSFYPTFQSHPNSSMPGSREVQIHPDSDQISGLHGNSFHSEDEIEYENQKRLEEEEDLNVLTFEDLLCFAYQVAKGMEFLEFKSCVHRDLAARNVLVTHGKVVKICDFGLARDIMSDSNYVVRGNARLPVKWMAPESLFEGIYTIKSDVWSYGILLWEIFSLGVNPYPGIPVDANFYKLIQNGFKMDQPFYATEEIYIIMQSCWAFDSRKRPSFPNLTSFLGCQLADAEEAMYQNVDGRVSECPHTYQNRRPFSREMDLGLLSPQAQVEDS

[14] = test system: Receptor-type tyrosine-protein kinase FLT3 (Homo sapiens), P36888 [UNDEFINED MUTATION]
Receptor-type tyrosine-protein kinase FLT3 (Homo sapiens), P36888 [UNDEFINED MUTATION], sequence (P36888 whole entry, looked up, change not shown): as the sequence (P36888 whole entry) above

[15] = test system: Receptor-type tyrosine-protein kinase FLT3 (Homo sapiens), P36888 [UNDEFINED MUTATION]; remark: listed apart in the source
[16] = target: Receptor-type tyrosine-protein kinase FLT3 (Homo sapiens) (UniProt P36888); remark: listed apart in the source
[17] = target: G protein-coupled receptor kinase 4 (Homo sapiens) (UniProt P32298)
[18] = target: Homeodomain-interacting protein kinase 2 (Homo sapiens) (UniProt Q9H2X6)
Homeodomain-interacting protein kinase 2 (Homo sapiens), sequence (Q9H2X6 whole entry, looked up): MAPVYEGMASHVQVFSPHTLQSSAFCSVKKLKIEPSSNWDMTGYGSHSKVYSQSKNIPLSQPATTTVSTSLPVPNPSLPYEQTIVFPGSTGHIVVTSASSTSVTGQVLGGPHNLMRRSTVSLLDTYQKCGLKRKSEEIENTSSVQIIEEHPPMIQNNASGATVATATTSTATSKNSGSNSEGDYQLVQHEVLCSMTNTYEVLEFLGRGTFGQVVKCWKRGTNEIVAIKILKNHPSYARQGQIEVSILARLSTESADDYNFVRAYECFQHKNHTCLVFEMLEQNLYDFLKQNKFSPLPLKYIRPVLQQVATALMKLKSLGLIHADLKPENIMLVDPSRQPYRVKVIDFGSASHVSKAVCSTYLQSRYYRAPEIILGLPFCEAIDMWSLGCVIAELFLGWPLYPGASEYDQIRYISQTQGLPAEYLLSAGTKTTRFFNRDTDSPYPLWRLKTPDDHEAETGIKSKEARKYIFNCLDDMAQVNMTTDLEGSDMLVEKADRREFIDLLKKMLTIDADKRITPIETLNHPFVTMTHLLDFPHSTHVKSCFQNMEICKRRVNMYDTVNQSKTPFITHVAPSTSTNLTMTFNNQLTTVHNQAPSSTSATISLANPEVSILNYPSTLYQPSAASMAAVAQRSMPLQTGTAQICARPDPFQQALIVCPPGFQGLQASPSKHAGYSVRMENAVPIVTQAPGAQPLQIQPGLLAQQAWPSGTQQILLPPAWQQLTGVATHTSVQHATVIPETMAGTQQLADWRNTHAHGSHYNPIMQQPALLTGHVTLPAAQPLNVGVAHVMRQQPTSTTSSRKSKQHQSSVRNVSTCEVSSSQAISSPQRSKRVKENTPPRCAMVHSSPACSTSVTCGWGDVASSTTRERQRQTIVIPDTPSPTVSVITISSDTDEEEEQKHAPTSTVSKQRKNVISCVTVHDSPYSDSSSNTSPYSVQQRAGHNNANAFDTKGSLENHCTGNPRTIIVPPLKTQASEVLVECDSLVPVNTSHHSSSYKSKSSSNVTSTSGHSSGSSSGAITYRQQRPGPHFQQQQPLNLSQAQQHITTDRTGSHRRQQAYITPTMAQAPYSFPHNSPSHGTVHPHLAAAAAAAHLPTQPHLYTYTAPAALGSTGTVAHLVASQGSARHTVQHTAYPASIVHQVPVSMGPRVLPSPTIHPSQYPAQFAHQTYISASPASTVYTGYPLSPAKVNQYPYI

[19] = target: Mitogen-activated protein kinase kinase kinase kinase 1 (Homo sapiens) (UniProt Q92918)
[20] = target: Serine/threonine-protein kinase ICK (Homo sapiens) (UniProt Q9UPZ9)
[21] = target: Insulin receptor-related protein (Homo sapiens) (UniProt P14616)
[22] = target: Mitogen-activated protein kinase 10 (Homo sapiens) (UniProt P53779)
[23] = test system: Mast/stem cell growth factor receptor Kit (Homo sapiens), P10721 [V559D,V654A]
[24] = target: MAP/microtubule affinity-regulating kinase 3 (Homo sapiens) (UniProt P27448)
[25] = target: Dual specificity mitogen-activated protein kinase kinase 1 (Homo sapiens) (UniProt Q02750)
Dual specificity mitogen-activated protein kinase kinase 1 (Homo sapiens), sequence (Q02750 whole entry): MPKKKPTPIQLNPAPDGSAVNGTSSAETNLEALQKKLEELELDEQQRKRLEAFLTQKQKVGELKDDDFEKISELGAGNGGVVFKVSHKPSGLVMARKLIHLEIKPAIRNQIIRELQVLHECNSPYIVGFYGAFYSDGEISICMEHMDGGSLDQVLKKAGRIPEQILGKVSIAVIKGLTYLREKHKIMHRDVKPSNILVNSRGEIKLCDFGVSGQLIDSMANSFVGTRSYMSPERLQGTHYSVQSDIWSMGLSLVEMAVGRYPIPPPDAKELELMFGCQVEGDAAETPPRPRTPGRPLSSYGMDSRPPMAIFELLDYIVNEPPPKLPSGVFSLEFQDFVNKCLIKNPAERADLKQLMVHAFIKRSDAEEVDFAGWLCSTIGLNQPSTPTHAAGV

[26] = target: Dual specificity mitogen-activated protein kinase kinase 6 (Homo sapiens) (UniProt P52564)
[27] = test system: Hepatocyte growth factor receptor (Homo sapiens), P08581 [Y1235D]
[28] = target: Serine/threonine-protein kinase PAK 6 (Homo sapiens) (UniProt Q9NQU5)
[29] = target: Platelet-derived growth factor receptor beta (Homo sapiens, UniProt P09619)
[30] = target: Cyclin-dependent kinase 2 homolog (Plasmodium falciparum (isolate 3D7)) (UniProt P61075)
[31] = test system: Phosphatidylinositol 4,5-bisphosphate 3-kinase catalytic subunit alpha isoform (Homo sapiens), P42336 [H1047Y]
[32] = target: Serine/threonine-protein kinase pim-2 (Homo sapiens) (UniProt Q9P1W9)
[33] = target: Serine/threonine-protein kinase N2 (Homo sapiens) (UniProt Q16513)
[34] = test system: Proto-oncogene tyrosine-protein kinase receptor Ret (Homo sapiens), P07949 [V804M]
[35] = target: Ribosomal protein S6 kinase alpha-1 (Homo sapiens) (UniProt Q15418)
[36] = target: Ribosomal protein S6 kinase alpha-6 (Homo sapiens) (UniProt Q9UK32)
[37] = target: SRSF protein kinase 2 (Homo sapiens) (UniProt P78362)
[38] = target: Serine/threonine-protein kinase 33 (Homo sapiens) (UniProt Q9BYT3)
[39] = target: BDNF/NT-3 growth factors receptor (Homo sapiens) (UniProt Q16620)
[40] = target: Serine/threonine-protein kinase ULK1 (Homo sapiens) (UniProt O75385)
[41] = target: Vascular endothelial growth factor receptor 2 (Homo sapiens, UniProt P35968)
[42] = target: Serine/threonine-protein kinase 25 (Homo sapiens) (UniProt O00506)
[43] = target: 5-hydroxytryptamine receptor 2A (Homo sapiens) (UniProt P28223); conditions: Compound concentration 10.0 uM
5-hydroxytryptamine receptor 2A (Homo sapiens), sequence (P28223 whole entry): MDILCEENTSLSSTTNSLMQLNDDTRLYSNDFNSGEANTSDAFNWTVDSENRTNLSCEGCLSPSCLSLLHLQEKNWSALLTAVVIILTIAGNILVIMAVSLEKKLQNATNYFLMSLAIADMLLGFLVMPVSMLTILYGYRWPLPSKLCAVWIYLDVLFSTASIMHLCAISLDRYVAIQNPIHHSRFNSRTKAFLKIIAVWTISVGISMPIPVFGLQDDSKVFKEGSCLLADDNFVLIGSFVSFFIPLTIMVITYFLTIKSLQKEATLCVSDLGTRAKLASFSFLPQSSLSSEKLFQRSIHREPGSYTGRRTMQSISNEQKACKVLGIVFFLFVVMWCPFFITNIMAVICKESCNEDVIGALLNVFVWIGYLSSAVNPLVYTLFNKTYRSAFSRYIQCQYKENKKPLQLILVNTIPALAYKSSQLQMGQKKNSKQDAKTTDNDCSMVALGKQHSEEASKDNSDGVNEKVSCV

[44] = target: 5-hydroxytryptamine receptor 2C (Homo sapiens) (UniProt P28335); conditions: Compound concentration 10.0 uM
[45] = target: Sodium-dependent serotonin transporter (Homo sapiens) (UniProt P31645); conditions: Compound concentration 10.0 uM
[46] = Compound concentration 1000.0 nM
[47] = Compound concentration 100.0 nM

Activin receptor type-2A (Homo sapiens), sequence (P27037 whole entry): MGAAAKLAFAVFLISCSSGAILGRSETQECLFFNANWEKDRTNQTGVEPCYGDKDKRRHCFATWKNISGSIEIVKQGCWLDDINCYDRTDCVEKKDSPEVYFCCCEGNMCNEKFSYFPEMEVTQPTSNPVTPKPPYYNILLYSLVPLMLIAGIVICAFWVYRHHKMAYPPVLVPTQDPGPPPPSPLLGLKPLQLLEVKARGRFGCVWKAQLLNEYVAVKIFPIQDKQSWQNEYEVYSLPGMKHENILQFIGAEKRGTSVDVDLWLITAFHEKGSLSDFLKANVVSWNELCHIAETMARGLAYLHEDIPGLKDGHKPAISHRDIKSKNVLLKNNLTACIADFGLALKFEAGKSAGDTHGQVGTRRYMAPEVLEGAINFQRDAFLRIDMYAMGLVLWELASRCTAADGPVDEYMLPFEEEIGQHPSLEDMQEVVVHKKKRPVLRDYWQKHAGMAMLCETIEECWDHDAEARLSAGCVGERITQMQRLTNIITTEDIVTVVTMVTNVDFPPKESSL

Cc1cc(NC(=O)c2cccc(S(F)(F)(F)(F)F)c2)cc(-n2ccn3nc(-c4cccnc4)cc23)c1 [BAY-309]
inactive: residual activity [1, 46] 66.7% | residual activity [2, 46] 88.9% | residual activity [3, 46] 100% | residual activity [4, 46] 100% | residual activity [5, 46] 86.2% | residual activity [6, 46] 100% | residual activity [7, 46] 72% | residual activity [8, 46] 100% | residual activity [9, 46] 100% | residual activity [10, 46] 100% | residual activity [11, 46] 98.2% | residual activity [12, 46] 100% | residual activity [13, 46] 100% | residual activity [14, 46] 95.8% | residual activity [15, 46] 66.1% | residual activity [16, 46] 100% | residual activity [17, 46] 100% | residual activity [18, 46] 85% | residual activity [19, 46] 82.1% | residual activity [20, 46] 64.2% | residual activity [21, 46] 100% | residual activity [22, 46] 64.9% | residual activity [23, 46] 100% | residual activity [24, 46] 100% | residual activity [25, 46] 100% | residual activity [26, 46] 100% | residual activity [27, 46] 100% | residual activity [28, 46] 100% | residual activity [29, 46] 100% | residual activity [30, 46] 71.8% | residual activity [32, 46] 100% | residual activity [33, 46] 100% | residual activity [34, 46] 74.2% | residual activity [35, 46] 100% | residual activity [36, 46] 100% | residual activity [37, 46] 100% | residual activity [38, 46] 87.8% | residual activity [40, 46] 100% | residual activity [41, 46] 68.3% | residual activity [42, 46] 59.5% | inhibition [43] 21.9% | inhibition [45] 19.2%
active: residual activity [31, 46] 22.9% | residual activity [39, 46] 40% | inhibition [44] 66%

Cc1cc(C)c(-n2ccn3nc(-c4cccnc4)cc23)cc1NC(=O)c1cc(C#N)cc(S(F)(F)(F)(F)F)c1 [BAY-826]
inactive: residual activity [1, 47] 74.5% | residual activity [3, 47] 68.6% | residual activity [4, 47] 100% | residual activity [5, 47] 76.7% | residual activity [6, 47] 85.5% | residual activity [7, 47] 86% | residual activity [8, 47] 77.9% | residual activity [9, 47] 100% | residual activity [10, 47] 83.9% | residual activity [11, 47] 91.1% | residual activity [12, 47] 100% | residual activity [13, 47] 100% | residual activity [14, 47] 100% | residual activity [15, 47] 87.7% | residual activity [16, 47] 84.1% | residual activity [17, 47] 100% | residual activity [18, 47] 86.2% | residual activity [19, 47] 100% | residual activity [20, 47] 74.1% | residual activity [21, 47] 91.8% | residual activity [22, 47] 100% | residual activity [23, 47] 89.4% | residual activity [24, 47] 85.1% | residual activity [25, 47] 76.2% | residual activity [26, 47] 100% | residual activity [27, 47] 93.4% | residual activity [28, 47] 70.1% | residual activity [29, 47] 74.8% | residual activity [30, 47] 90.9% | residual activity [31, 47] 76.2% | residual activity [32, 47] 100% | residual activity [33, 47] 100% | residual activity [34, 47] 94.5% | residual activity [35, 47] 100% | residual activity [36, 47] 80.4% | residual activity [37, 47] 60.1% | residual activity [38, 47] 100% | residual activity [39, 47] 54.8% | residual activity [40, 47] 100% | residual activity [41, 47] 76.2% | residual activity [42, 47] 79.1% | inhibition [43] -4.7% | inhibition [44] 34.5% | inhibition [45] 11.1%
active: residual activity [2, 47] 33.4%
